Data taken from US10774064B2 (Cadent Therapeutics, Inc., priority 2016, dated 2020).

target: T1, small-conductance Ca2+-activated K+ channels (SK channels, subtype 2) (Homo sapiens, UniProt Q9H2S1); test: whole-cell patch-clamp of ionic current through SK2 channels in HEK293 cells (SC100); format: cell-based; conditions: whole-cell patch-clamp, HEK293 cells expressing SK2 channels; concentration that increases the basal current by 100%
T1 construct: expressed in transfected cells; host or cells: HEK293
How it was run: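 SC100, the concentration doubling basal current (a 100% increase), was taken from SK2 currents recorded by whole-cell patch-clamp in SK2-expressing HEK293 cells.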

SC100 (μM)	SMILES
+ (+ means >1 uM)	Cc1csc(-c2nc(O)cc(NC3CCC(F)(F)CC3)n2)n1 [NSSy6082, 6-((4,4-difluorocyclohexyl)amino)-2-(4-methylthiazol-2-yl)pyrimidin-4-ol]
++ (++ means 200 nM-1000 nM)	Cc1csc(-c2nc(NC3CCC(F)(F)CC3)cc(N3CCN(C)C(=O)C3)n2)n1 [NSSy6093]
+ (+ means >1 uM)	COC(=O)N1CC(Oc2cc(N(C)C3CCC(F)(F)CC3)nc(-c3nc(C)cs3)n2)C1 [NSSy6105, methyl 3-((6-((4,4-difluorocyclohexyl) (methyl)amino)-2-(4-methylthiazol-2-yl)pyrimidin-4-yl)oxy) azetidine-1-carboxylate]
++ (++ means 200 nM-1000 nM)	Cc1ccn(-c2nc(NC3CCC(F)(F)CC3)cc(N3CCS(=O)(=O)CC3)n2)n1 [NSSy6111]
++ (++ means 200 nM-1000 nM)	Cc1csc(-c2nc(NC3CCC(F)(F)CC3)cc(N3CC4CC3CO4)n2)n1 (centres unmarked) [NSSy6116]
++ (++ means 200 nM-1000 nM)	Cc1nsc(-c2nc(NC3CCC(F)(F)CC3)cc(N3CCS(=O)(=O)CC3)n2)n1 [NSSy6125]
++ (++ means 200 nM-1000 nM)	Cc1csc(-c2nc(NC3CCC(F)(F)CC3)cc(N3CC4CCC(C3)O4)n2)n1 [NSSy6129]
+ (+ means >1 uM)	COC(=O)N1CC(Oc2cc(NC3CCC(F)(F)CC3)nc(-c3csc(C)n3)n2)C1 [NSSy6132]
+ (+ means >1 uM)	Cc1nsc(-c2nc(NC3CCC(F)(F)CC3)cc(N3CC4(COC4)C3)n2)n1 [NSSy6145]
+ (+ means >1 uM)	FC1(F)CCC(Nc2cc(N3CCOCC3)nc(-c3nccs3)n2)CC1 [NSSy6152]
+ (+ means >1 uM)	Cc1nc(-c2nc(NC3CCC(F)(F)CC3)cc(N3CCS(=O)(=O)CC3)n2)cs1 [NSSy6165]
+ (+ means >1 uM)	COC(=O)N1CC(Oc2cc(NC3CCC(F)(F)CC3)nc(-c3nccs3)n2)C1 [NSSy6167]
++ (++ means 200 nM-1000 nM)	Cc1csc(-c2nc(NC3CCC(F)(F)CC3)cc(N3C[C@@H]4C[C@H]3CO4)n2)n1 [NSSy6171]
++ (++ means 200 nM-1000 nM)	Cc1nsc(-c2nc(NC3CCC(F)(F)CC3)cc(N3CCN4C(=O)OCC4C3)n2)n1 (centres unmarked) [NSSy6178]
+ (+ means >1 uM)	Cc1nsc(-c2nc(NC3CCC(F)(F)CC3)cc(N3CCN(C4COC4)CC3)n2)n1 [NSSy6201]
++ (++ means 200 nM-1000 nM)	Cc1nsc(-c2nc(NC3CCC(F)(F)CC3)cc(N3CCN4C(=O)OC[C@@H]4C3)n2)n1 [NSSy6251]
++ (++ means 200 nM-1000 nM)	Cc1nsc(-c2nc(NC3CCC(F)(F)CC3)cc(N3CCN4C(=O)OC[C@H]4C3)n2)n1 [NSSy6252]
++ (++ means 200 nM-1000 nM)	Cc1csc(-c2nc(NC3CCC(F)(F)CC3)cc(OC3CCS(=O)(=O)CC3)n2)n1 [NSSy6253]
++ (++ means 200 nM-1000 nM)	CC(=O)N1CCC(Oc2cc(NC3CCC(F)(F)CC3)nc(-c3nc(C)cs3)n2)CC1 [NSSy6258]
+ (+ means >1 uM)	Cc1csc(-c2nc(CC3CCC(F)(F)CC3)cc(N3CCOCC3)n2)n1 [NSSy6263, 4-(6-((4,4-difluorocyclohexyl)methyl)-2-(4-methylthiazol-2-yl)pyrimidin-4-yl)morpholine]
+ (+ means >1 uM)	Fc1ccn(-c2nc(NC3CCC(F)(F)CC3)cc(N3CCOCC3)n2)n1 [NSSy6343]
+ (+ means >1 uM)	Cc1csc(-c2cc(OC3CCC(F)(F)CC3)nc(N3CCOCC3)c2)n1 [NSSy6374, 4-(6-((4,4-difluorocyclohexyl)oxy)-4-(4-methylthiazol-2-yl)pyridin-2-yl) morpholine]
+ (+ means >1 uM)	Cc1csc(-c2cc(N3CCOCC3)nc(NC3CCC(F)(F)CC3)n2)n1 [NSSy6391, N-(4,4-difluorocyclohexyl)-4-(4-methylthiazol-2-yl)-6-morpholinopyrimidin-2-amine]
+ (+ means >1 uM)	Cc1ccn(-c2nc(NC3CCC(F)(F)CC3)cc(N3C[C@@H]4C[C@H]3CO4)n2)n1 [NSSy6394]
+++ (+++ means <200 nM)	CC(=O)N1CCC(O)(c2cc(NC3CCC(F)(F)CC3)nc(-c3nc(C)cs3)c2)CC1 [NSSy6436, 1-(4-(2-((4,4-difluorocyclohexyl)amino)-6-(4-methylthiazol-2-yl)pyridin-4-yl)-4-hydroxypiperidin-1-yl)ethan-1-one]

Second part, the compound before the results:

SMILES	SC100 (μM)
COC(=O)N1CC(Oc2cc(NC3CCC(C(F)(F)F)CC3)nc(-c3nc(C)cs3)n2)C1 (centres unmarked) [NSSy6078, methyl 3-((2-(4-methylthiazol-2-yl)-6-((4-(trifluoromethyl)cyclohexyl)amino)pyrimidin-4-yl)oxy) azetidine-1-carboxylate]	+ (+ means >1 uM)
COC(=O)N1CC(Oc2cc(NC3C4CC5CC(C4)CC3C5)nc(-n3ccc(C)n3)n2)C1 (centres unmarked) [NSSy6091]	++ (++ means 200 nM-1000 nM)
COC(=O)N1CC(Oc2cc(NC34CC5CC(CC(C5)C3)C4)nc(-n3ccc(C)n3)n2)C1 [NSSy6097]	+++ (+++ means <200 nM)
COC(=O)N1CC(Oc2cc(NC3CCCCC3)nc(-c3nc(C)cs3)n2)C1 [NSSy6099]	+++ (+++ means <200 nM)
COCC1CN(c2cc(NC3CCCCC3)nc(-c3nc(C)cs3)n2)CCO1 (centres unmarked) [NSSy6100]	++ (++ means 200 nM-1000 nM)
COC[C@H]1CN(c2cc(NC3CCCCC3)nc(-c3nc(C)cs3)n2)CCO1 [NSSy6115]	++ (++ means 200 nM-1000 nM)
COC[C@@H]1CN(c2cc(NC3CCCCC3)nc(-c3nc(C)cs3)n2)CCO1 [NSSy6124]	++ (++ means 200 nM-1000 nM)
COC(=O)N1CC(Oc2cc(N3CC4(CCCCC4)C3)nc(-c3nc(C)cs3)n2)C1 [NSSy6126]	+ (+ means >1 uM)
COC(=O)N1CC(Oc2cc(NC3C4CC3C4)nc(-n3ccc(C)n3)n2)C1 (centres unmarked) [NSSy6127]	+ (+ means >1 uM)
Cc1csc(-c2nc(NC3CCCCC3)cc(N3CCS(=O)(=O)CC3)n2)n1 [NSSy6131]	+++ (+++ means <200 nM)
COC(=O)N1CC(Oc2cc(NC3CCCCC3)nc(-c3csc(C)n3)n2)C1 [NSSy6133]	+ (+ means >1 uM)
Cc1nc(-c2nc(NC3CCCCC3)cc(N3CCS(=O)(=O)CC3)n2)cs1 [NSSy6134]	+ (+ means >1 uM)
Cc1csc(-c2nc(NC3CCCCC3)cc(N3CCN(C4COC4)CC3)n2)n1 [NSSy6149]	++ (++ means 200 nM-1000 nM)
COC(=O)N1CC(Oc2cc(NC3CCC(F)(F)CC3)nc(-n3ccc(F)n3)n2)C1 [NSSy6162]	++ (++ means 200 nM-1000 nM)
COC(=O)N1CC(Oc2cc(NC3CCCCC3)nc(-c3nccs3)n2)C1 [NSSy6166, methyl 3-((6-(cyclohexylamino)-2-(thiazol-2-yl)pyrimidin-4-yl)oxy) azetidine-1-carboxylate]	+ (+ means >1 uM)
Cc1nsc(-c2nc(NC3CCCCC3)cc(N3CCS(=O)(=O)CC3)n2)n1 [NSSy6202, 4-(6-(cyclohexylamino)-2-(3-methyl-1,2,4-thiadiazol-5-yl)pyrimidin-4-yl)thiomorpholine 1,1-dioxide]	++ (++ means 200 nM-1000 nM)
Cc1cc(C)n(-c2nc(NC3CCCC(F)(F)C3)cc(N3CCOCC3)n2)n1 (centres unmarked) [NSSy6265]	+ (+ means >1 uM)

SMILES	SC100 (μM)
Cc1ccn(-c2nc(NC3CCC(F)(F)CC3)cc(N(C)C3CC3)n2)n1 [NSSy6272]	++ (++ means 200 nM-1000 nM)
Cc1csc(-c2cc(N3CCOCC3)cc(OC3CCC(F)(F)CC3)n2)n1 [NSSy6285]	+ (+ means >1 uM)
Cc1csc(-c2cc(N(C)C3COC3)cc(NC3CCC(F)(F)CC3)n2)n1 [NSSy6288]	++ (++ means 200 nM-1000 nM)
Cc1csc(N2C[C@@H](Nc3ccc([N+](=O)[O-])cc3)C[C@H](N3CCOCC3)C2)n1 [NSSy6342, (3S,5S)-1-(4-methylthiazol-2-yl)-5-morpholino-N-(4-nitrophenyl)piperidin-3-amine]	+ (+ means >1 uM)
Cc1csc(-c2nc(N3CCOCC3)cc(N3CC4CCCCC43)n2)n1 (centres unmarked) [NSSy6348, 4-(6-(7-azabicyclo[4.2.0]octan-7-yl)-2-(4-methylthiazol-2-yl)pyrimidin-4-yl)morpholine]	+ (+ means >1 uM)
Cc1cc(C)n(-c2cc(CO)cc(NC3CCC(F)(F)CC3)n2)n1 [NSSy6355, (2-((4,4-difluorocyclohexyl)amino)-6-(3,5-dimethyl-1H-pyrazol-1-yl)pyridin-4-yl) methanol]	++ (++ means 200 nM-1000 nM)
CC(=O)N1CCC(c2cc(NC3CCC(F)(F)CC3)nc(-n3ccc(C)n3)n2)CC1 [NSSy6369]	++ (++ means 200 nM-1000 nM)
Cc1ccn(-c2cc(COc3ccc(C#N)cn3)cc(NC3CCC(F)(F)CC3)n2)n1 [NSSy6371]	+++ (+++ means <200 nM)
Cc1cc(C)n(-c2nc(N3CCOCC3)cc(N(O)C3CCC(F)(F)CC3)n2)n1 [NSSy6386]	+ (+ means >1 uM)
Cc1cc(C)n(-c2cc(N3CCOCC3)nc(NC3CCC(F)(F)CC3)n2)n1 [NSSy6389]	+ (+ means >1 uM)
Cc1ccn(-c2cc(C(O)c3ncco3)cc(NC3CCC(F)(F)CC3)n2)n1 (centres unmarked) [NSSy6395]	++ (++ means 200 nM-1000 nM)
Cc1ccn(-c2cc([C@@H](O)c3ncco3)cc(NC3CCC(F)(F)CC3)n2)n1 [NSSy6415]	++ (++ means 200 nM-1000 nM)
Cc1ccn(-c2cc([C@H](O)c3ncco3)cc(NC3CCC(F)(F)CC3)n2)n1 [NSSy6416]	++ (++ means 200 nM-1000 nM)
Cc1ccn(-c2cc(COc3ccc(C#N)nn3)cc(NC3CCC(F)(F)CC3)n2)n1 [NSSy6417]	+++ (+++ means <200 nM)
Cc1ccn(-c2nc(NC3CC4CCC3O4)cc(N3CCOCC3)n2)n1 (centres unmarked) [NSSy6420]	+ (+ means >1 uM)
OC(c1cc(NC2CCC(F)(F)CC2)nc(-n2cc(F)cn2)c1)c1ncco1 (centres unmarked) [NSSy6435]	+ (+ means >1 uM)
Cc1ccn(-c2nc(N[C@@H]3C[C@H]4CC[C@@H]3O4)cc(N3CCOCC3)n2)n1 [NSSy6445]	+ (+ means >1 uM)
